Laboratory results: patent US20230278972A1, “SUBSTITUTED HALOALKYL SULFONANILIDE HERBICIDES” (FMC Corporation, priority 2020, published 2023)

Tests used:
Assay type in all cases: in vivo
[1] = tested on: wheat (Triticum aestivum); test: Test A postemergence, wheat; settings: Postemergence, 0 to 100 scale (0 no effect, 100 complete control)
How it was run: (§1)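 Pots: loam soil/sand blend. Pre: directed soil spray at planting. Post: plants 2–10 cm, 1–2 leaf stage. Formulation: non-phytotoxic solvent + surfactant.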

[2] = tested on: blackgrass (Alopecurus myosuroides); test: Test A postemergence, blackgrass; settings: Postemergence, 0 to 100 scale (0 no effect, 100 complete control)
How it was run: (§2)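 Greenhouse pot test in a loam–sand blend; compounds delivered in a non-phytotoxic solvent carrying a surfactant, applied either as a directed spray to soil at seeding or over seedlings 2 to 10 cm high with one to two leaves.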

[3] = tested on: kochia (Bassia scoparia); test: Test A preemergence, kochia; settings: Preemergence; for Plant response rating, Kochia: 125 g ai/ha, visual injury, 0 to 100 scale (0 no effect, 100 complete control), approx. 10 days; for Kochia plant response rating: 500 g ai/ha, visual injury on 0 to 100 scale (0 no effect, 100 complete control), approximately 10 days
How it was run: as §2

[4] = tested on: kochia (Bassia scoparia); test: Test A postemergence, kochia; settings: Postemergence, 0 to 100 scale (0 no effect, 100 complete control)
How it was run: as §2

[5] = tested on: barnyardgrass (Echinochloa crus-galli); test: Test A preemergence, barnyardgrass; settings: Preemergence; for Plant response rating, Barnyardgrass: 125 g ai/ha, visual injury, 0 to 100 scale (0 no effect, 100 complete control), approx. 10 days; for Barnyardgrass plant response rating: 500 g ai/ha, visual injury on 0 to 100 scale (0 no effect, 100 complete control), approximately 10 days
How it was run: as §2

[6] = tested on: corn (Zea mays); test: Test A postemergence, corn; settings: Postemergence, 0 to 100 scale (0 no effect, 100 complete control)
How it was run: as §2

[7] = tested on: ragweed (common ragweed, Ambrosia artemisiifolia); test: Test A preemergence, ragweed; settings: Preemergence; for Plant response rating, Ragweed: 125 g ai/ha, visual injury, 0 to 100 scale (0 no effect, 100 complete control), approx. 10 days; for Ragweed plant response rating: 500 g ai/ha, visual injury on 0 to 100 scale (0 no effect, 100 complete control), approximately 10 days
How it was run: as §2

[8] = tested on: pigweed (Amaranthus retroflexus); test: Test A preemergence, pigweed; settings: for Plant response rating, Pigweed: 125 g ai/ha, visual injury, 0 to 100 scale (0 no effect, 100 complete control), approx. 10 days; for Pigweed plant response rating: 500 g ai/ha, visual injury on 0 to 100 scale (0 no effect, 100 complete control), approximately 10 days
How it was run: as §1

[9] = tested on: Ryegrass, Italian (Italian ryegrass, Lolium multiflorum); test: Test A preemergence, Ryegrass, Italian; settings: Preemergence; for Plant response rating, Ryegrass, Italian: 125 g ai/ha, visual injury, 0 to 100 scale (0 no effect, 100 complete control), approx. 10 days; for Ryegrass, Italian plant response rating: 500 g ai/ha, visual injury on 0 to 100 scale (0 no effect, 100 complete control), approximately 10 days
How it was run: as §2

[10] = tested on: Foxtail, Giant (giant foxtail, Setaria faberi); test: Test A postemergence, Foxtail, Giant; settings: Postemergence, 0 to 100 scale (0 no effect, 100 complete control)
How it was run: as §2

[11] = tested on: pigweed (Amaranthus retroflexus); test: Test A postemergence, pigweed; settings: Postemergence, 0 to 100 scale (0 no effect, 100 complete control)
How it was run: as §2

[12] = tested on: galium (catchweed bedstraw, Galium aparine); test: Test A postemergence, galium; settings: Postemergence, 0 to 100 scale (0 no effect, 100 complete control)
How it was run: as §1

[13] = tested on: ragweed (common ragweed, Ambrosia artemisiifolia); test: Test A postemergence, ragweed; settings: Postemergence, 0 to 100 scale (0 no effect, 100 complete control)
How it was run: as §2

[14] = tested on: Ryegrass, Italian (Italian ryegrass, Lolium multiflorum); test: Test A postemergence, Ryegrass, Italian; settings: Postemergence, 0 to 100 scale (0 no effect, 100 complete control)
How it was run: as §2

[15] = tested on: Foxtail, Giant (giant foxtail, Setaria faberi); test: Test A preemergence, Foxtail, Giant; settings: Preemergence; for Plant response rating, Foxtail, Giant: 125 g ai/ha, visual injury, 0 to 100 scale (0 no effect, 100 complete control), approx. 10 days; for Foxtail, Giant plant response rating: 500 g ai/ha, visual injury on 0 to 100 scale (0 no effect, 100 complete control), approximately 10 days
How it was run: as §2

[16] = tested on: barnyardgrass (Echinochloa crus-galli); test: Test A postemergence, barnyardgrass; settings: Postemergence, 0 to 100 scale (0 no effect, 100 complete control)
How it was run: as §1

[17] = 500 g ai/ha, visual injury approx. 10 days

SMILES | Plant response rating, Wheat ([1]; 125 g ai/ha) | Plant response rating, Wheat [1, 17] | Plant response rating, Blackgrass ([2]; 125 g ai/ha) | Plant response rating, Blackgrass [2, 17] | Plant response rating, Kochia [3] | Kochia plant response rating [3] | Plant response rating, Kochia ([4]; 125 g ai/ha) | Plant response rating, Kochia [4, 17] | Plant response rating, Barnyardgrass [5] | Barnyardgrass plant response rating [5] | Plant response rating, Corn ([6]; 125 g ai/ha) | Plant response rating, Corn [6, 17] | Plant response rating, Ragweed [7] | Ragweed plant response rating [7] | Plant response rating, Pigweed [8] | Pigweed plant response rating [8] | Plant response rating, Ryegrass, Italian [9] | Ryegrass, Italian plant response rating [9] | Plant response rating, Foxtail, Giant ([10]; 125 g ai/ha) | Plant response rating, Foxtail, Giant [10, 17] | also measured
Cc1cc(C)c(N(S(=O)(=O)C(F)(F)F)S(=O)(=O)C(F)(F)F)cc1C(=O)N1CCCOCC1 [Compound 276] | 0 | 20 | 0 | 0 | 0 | 0 | 20 | 60 | 70 | 100 | 0 | 20 | 40 | 70 | 80 | 100 | 30 | 80 | 10 | 90 | Plant response rating, Pigweed ([11]; 125 g ai/ha): 60; Plant response rating, Pigweed [11, 17]: 80; Plant response rating, Galium ([12]; 125 g ai/ha): 80; Plant response rating, Galium [12, 17]: 90; Plant response rating, Ragweed ([13]; 125 g ai/ha): 50; Plant response rating, Ragweed [13, 17]: 80; Plant response rating, Ryegrass, Italian ([14]; 125 g ai/ha): 0; Plant response rating, Ryegrass, Italian [14, 17]: 10; Plant response rating, Foxtail, Giant [15]: 100; Foxtail, Giant plant response rating [15]: 100; Plant response rating, Barnyardgrass ([16]; 125 g ai/ha): 60; Plant response rating, Barnyardgrass [16, 17]: 90
Cc1cc(C)c(C2=NOC3(CCCCCC3)C2)cc1NS(=O)(=O)C(F)(F)F [Compound 277] | 0 | 70 | 10 | 60 | 90 | 100 | 10 | 40 | 100 | 100 | 10 | 70 | 10 | 80 | 60 | 100 | 100 | 100 | 30 | 90 | Plant response rating, Pigweed ([11]; 125 g ai/ha): 30; Plant response rating, Pigweed [11, 17]: 70; Plant response rating, Galium ([12]; 125 g ai/ha): 100; Plant response rating, Galium [12, 17]: 100; Plant response rating, Ragweed ([13]; 125 g ai/ha): 20; Plant response rating, Ragweed [13, 17]: 60; Plant response rating, Ryegrass, Italian ([14]; 125 g ai/ha): 0; Plant response rating, Ryegrass, Italian [14, 17]: 60; Plant response rating, Foxtail, Giant [15]: 100; Foxtail, Giant plant response rating [15]: 100; Plant response rating, Barnyardgrass ([16]; 125 g ai/ha): 20; Plant response rating, Barnyardgrass [16, 17]: 90
Cc1cc(C)c(N2CC3(CCCCC3)OC2=O)cc1NS(=O)(=O)C(F)(F)F [Compound 279] | 0 | 70 | 0 | 20 | 80 | 90 | 40 | 50 | 100 | 100 | 20 | 20 | 100 | 100 | 90 | 100 | 90 | 100 | 10 | 30 | Plant response rating, Pigweed ([11]; 125 g ai/ha): 50; Plant response rating, Pigweed [11, 17]: 80; Plant response rating, Galium ([12]; 125 g ai/ha): 90; Plant response rating, Galium [12, 17]: 90; Plant response rating, Ragweed ([13]; 125 g ai/ha): 80; Plant response rating, Ragweed [13, 17]: 90; Plant response rating, Ryegrass, Italian ([14]; 125 g ai/ha): 0; Plant response rating, Ryegrass, Italian [14, 17]: 60; Plant response rating, Foxtail, Giant [15]: 100; Foxtail, Giant plant response rating [15]: 100; Plant response rating, Barnyardgrass ([16]; 125 g ai/ha): 20; Plant response rating, Barnyardgrass [16, 17]: 80
Cc1cc(C)c(N(S(=O)(=O)C(F)(F)F)S(=O)(=O)C(F)(F)F)cc1N1CCC2(CCCC2)C1=O [Compound 280] | 40 | 60 | 0 | 0 | 40 | 70 | 20 | 50 | 90 | 90 | 0 | 10 | 30 | 70 | 70 | 100 | 100 | 100 | 0 | 20 | Plant response rating, Pigweed ([11]; 125 g ai/ha): 60; Plant response rating, Pigweed [11, 17]: 90; Plant response rating, Galium ([12]; 125 g ai/ha): 80; Plant response rating, Galium [12, 17]: 90; Plant response rating, Ragweed ([13]; 125 g ai/ha): 30; Plant response rating, Ragweed [13, 17]: 50; Plant response rating, Ryegrass, Italian ([14]; 125 g ai/ha): 40; Plant response rating, Ryegrass, Italian [14, 17]: 70; Plant response rating, Foxtail, Giant [15]: 100; Foxtail, Giant plant response rating [15]: 100; Plant response rating, Barnyardgrass ([16]; 125 g ai/ha): 20; Plant response rating, Barnyardgrass [16, 17]: 90
